The text below walks through data of patent US11660293B2, “Substituted 2-azabicyclo[3.1.1]heptane and 2-azabicyclo[3.2.1]octane derivatives as orexin receptor antagonists” (Chronos Therapeutics Limited, priority 2017, dated 2023).

The target in experiment [1] is human Orexin type 2 receptors (Homo sapiens (Human), UniProt O43614). Put plainly: Scintillation Proximity Assay (SPA) binding assay, [3H]EMPA displacement, HEK-hOX2 membranes. Background: SPA uses beads or plates that emit light when radiolabelled molecules are held near them.
human Orexin type 2 receptors, sequence (O43614 whole entry): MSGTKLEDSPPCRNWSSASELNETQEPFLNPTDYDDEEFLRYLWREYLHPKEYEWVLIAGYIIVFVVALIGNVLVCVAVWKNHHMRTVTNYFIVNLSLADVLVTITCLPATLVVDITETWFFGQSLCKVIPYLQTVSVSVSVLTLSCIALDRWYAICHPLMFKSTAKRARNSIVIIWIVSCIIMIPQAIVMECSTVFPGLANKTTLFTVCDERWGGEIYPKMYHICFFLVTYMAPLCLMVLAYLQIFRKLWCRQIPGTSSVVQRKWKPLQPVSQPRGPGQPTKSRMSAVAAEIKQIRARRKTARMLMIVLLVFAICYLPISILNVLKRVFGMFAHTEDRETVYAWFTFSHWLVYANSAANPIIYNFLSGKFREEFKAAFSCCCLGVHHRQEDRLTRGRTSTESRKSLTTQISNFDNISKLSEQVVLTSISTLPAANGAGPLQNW
Experiment [2] deals with human Orexin type 1 receptors (Homo sapiens (Human), UniProt O43613). Description: Scintillation Proximity Assay (SPA) binding assay, [3H]SB-674042 displacement, CHO-hOX1 membranes.
human Orexin type 1 receptors, sequence (O43613 whole entry): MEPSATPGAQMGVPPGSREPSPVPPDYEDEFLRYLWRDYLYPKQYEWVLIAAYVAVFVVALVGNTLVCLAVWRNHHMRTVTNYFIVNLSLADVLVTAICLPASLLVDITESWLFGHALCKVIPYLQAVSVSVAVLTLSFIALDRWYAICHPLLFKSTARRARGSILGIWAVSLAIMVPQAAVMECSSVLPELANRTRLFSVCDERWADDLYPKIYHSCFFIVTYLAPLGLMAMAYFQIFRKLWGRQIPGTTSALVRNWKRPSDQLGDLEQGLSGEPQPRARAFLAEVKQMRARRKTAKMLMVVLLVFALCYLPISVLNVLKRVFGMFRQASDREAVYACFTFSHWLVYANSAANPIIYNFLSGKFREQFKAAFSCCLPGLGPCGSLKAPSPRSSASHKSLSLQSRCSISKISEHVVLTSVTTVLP

For `Cc1ccc(-n2nccn2)c(C(=O)N2C3CC(C3)[C@@H](C)C2COc2ccc(C(F)(F)F)cn2)n1` (mixture of isomers) [Example 129, cis-4-methyl-2-[6-methyl-3-(2H-1,2,3-triazol-2-yl)pyridine-2-carbonyl]-3-({[5-(trifluoromethyl)pyridin-2-yl]oxy}methyl)-2-azabicyclo[3.1.1]heptane], the “OX2 pKi (SPA binding)” value in experiment [1] (Table 2, [3H]EMPA 2 nM) is given as 5.14. Moreover, in experiment [2] (Table 2, [3H]SB-674042 2 nM), the “OX1 pKi (SPA binding)” value was determined as 6.81.

As to `Cc1ccc(-n2nccn2)c(C(=O)N2C(COc3ccc(F)cc3)CC3CC2C3)n1` (stereo not shown) [Example 39], the “OX2 pKi (SPA binding)” value in experiment [1] (Table 1, [3H]EMPA 2 nM) came out at 6.19. For the same compound, in experiment [2] (Table 1, [3H]SB-674042 2 nM), the “OX1 pKi (SPA binding)” value came to 7.64.

For `Cc1ccc(-n2nccn2)c(C(=O)N2C3CC(C3)[C@@H](C)C2CNc2cnc3cc(F)ccc3n2)n1` (single isomer, unassigned) [Example 200, 6-fluoro-N-{[(3R,4S) or (3S,4R)-4-methyl-2-[6-methyl-3-(2H-1,2,3-triazol-2-yl)pyridine-2-carbonyl]-2-azabicyclo[3.1.1]heptan-3-yl]methyl}quinoxalin-2-amine], the “OX2 pKi (SPA binding)” value in experiment [1] (Table 2, [3H]EMPA 2 nM) is reported as 6.37. The “OX1 pKi (SPA binding)” value in experiment [2] (Table 2, [3H]SB-674042 2 nM) amounted to 8.24.

Take `Cc1cccc(-c2sc(C)nc2C(=O)N2C3CC(C3)[C@@H](C)C2COc2ccc(F)cc2)n1` (mixture of isomers) [Example 137, cis-3-[(4-fluorophenoxy)methyl]-4-methyl-2-[2-methyl-5-(6-methylpyridin-2-yl)-1,3-thiazole-4-carbonyl]-2-azabicyclo[3.1.1]heptane]: in experiment [1] (Table 2, [3H]EMPA 2 nM), the “OX2 pKi (SPA binding)” value turned out to be 6.34. Also, the “OX1 pKi (SPA binding)” value in experiment [2] (Table 2, [3H]SB-674042 2 nM) came to 7.97.

For the compound `Cc1nc(C(=O)N2C3CC(C3)[C@H](C)C2COc2ccc(F)cc2)c(-c2cnccn2)s1` (mixture of isomers) [Example 121, trans-3-[(4-fluorophenoxy)methyl]-4-methyl-2-[2-methyl-5-(pyrazin-2-yl)-1,3-thiazole-4-carbonyl]-2-azabicyclo[3.1.1]heptane], the “OX2 pKi (SPA binding)” value in experiment [1] (Table 2, [3H]EMPA 2 nM) amounted to 5.54. The “OX1 pKi (SPA binding)” value in experiment [2] (Table 2, [3H]SB-674042 2 nM) is given as 7.36.

On to `C[C@@H]1C2CC(C2)N(C(=O)c2cc(F)ccc2-n2nccn2)C1CNc1nc2ccc(F)cc2s1` (single isomer, unassigned) [Example 170, 6-fluoro-N-({(3R,4S) or (3S,4R)2-[5-fluoro-2-(2H-1,2,3-triazol-2-yl)benzoyl]-4-methyl-2-azabicyclo[3.1.1]heptan-3-yl}methyl)-1,3-benzothiazol-2-amine], for which, in experiment [1] (Table 2, [3H]EMPA 2 nM), the “OX2 pKi (SPA binding)” value is reported as 5.99. For the same compound, the “OX1 pKi (SPA binding)” value in experiment [2] (Table 2, [3H]SB-674042 2 nM) came to 8.86.

With `Cc1ccc(-n2nccn2)c(C(=O)N2C3CC(C3)[C@H](C)C2COc2ccc(Cl)cc2)n1` (stereo partly drawn) [Example 112, trans-3-[(4-chlorophenoxy)methyl]-4-methyl-2-[6-methyl-3-(2H-1,2,3-triazol-2-yl)pyridine-2-carbonyl]-2-azabicyclo[3.1.1]heptane], the “OX2 pKi (SPA binding)” value in experiment [1] (Table 1, [3H]EMPA 2 nM) came to 5.92. Besides, the “OX1 pKi (SPA binding)” value in experiment [2] (Table 1, [3H]SB-674042 2 nM) turned out to be 7.83.

For `C[C@@H]1C2CC(C2)N(C(=O)c2cc(C#N)ccc2-n2nccn2)C1COc1ccc(F)cc1` (mixture of isomers) [Example 142, cis-3-{3-[(4-fluorophenoxy)methyl]-4-methyl-2-azabicyclo[3.1.1]heptane-2-carbonyl}-4-(2H-1,2,3-triazol-2-yl)benzonitrile], the “OX2 pKi (SPA binding)” value in experiment [1] (Table 2, [3H]EMPA 2 nM) came out at 6.33. Moreover, the “OX1 pKi (SPA binding)” value in experiment [2] (Table 2, [3H]SB-674042 2 nM) is reported as 7.

`C[C@@H]1C2CC(C2)N(C(=O)c2cc(F)ccc2-n2nccn2)C1CNc1ccc(C(F)(F)F)cn1` (mixture of isomers) [Example 190, cis-N-({2-[5-fluoro-2-(2H-1,2,3-triazol-2-yl)benzoyl]-4-methyl-2-azabicyclo[3.1.1]heptan-3-yl}methyl)-5-(trifluoromethyl)pyridin-2-amine]: in experiment [1] (Table 2, [3H]EMPA 2 nM), the “OX2 pKi (SPA binding)” value is on record as 4.98. Besides, the “OX1 pKi (SPA binding)” value in experiment [2] (Table 2, [3H]SB-674042 2 nM) amounted to 7.8.

Turning to `Cc1nc(C(=O)N2C(CNc3cc4ccccc4cn3)CC3CC2C3)c(-c2ccccc2)s1` (stereo not shown) [Example 59, N-[[2-(2-methyl-5-phenyl-1,3-thiazole-4-carbonyl)-2-azabicyclo[3.1.1]heptan-3-yl]methyl}isoquinolin-3-amine], the “OX2 pKi (SPA binding)” value in experiment [1] (Table 1, [3H]EMPA 2 nM) was found to be 7.46. The “OX1 pKi (SPA binding)” value in experiment [2] (Table 1, [3H]SB-674042 2 nM) stood at 8.1.

As to `Cc1nc(C(=O)N2C(COc3cc4ccccc4cn3)CC3CC2C3)c(-c2ccccc2)s1` (stereo not shown) [Example 38], the “OX2 pKi (SPA binding)” value in experiment [1] (Table 1, [3H]EMPA 2 nM) came to 6.9. In experiment [2] (Table 1, [3H]SB-674042 2 nM), the “OX1 pKi (SPA binding)” value was determined as 7.61.

In the case of `Cc1ccc(-c2nccs2)c(C(=O)N2C3CC(C3)[C@H](C)C2COc2ccc(F)cc2)n1` (single isomer, unassigned) [Example 108, (3S,4S or 3R,4R)-3-[(4-fluorophenoxy)methyl]-4-methyl-2-[6-methyl-3-(1,3-thiazol-2-yl)pyridine-2-carbonyl]-2-azabicyclo[3.1.1]heptane], the Ki in experiment [1] (Table 1, [3H]EMPA 2 nM, read-out: OX2 pKi (SPA binding) (converted)) is 407 nM; in experiment [2] (Table 1, [3H]SB-674042 2 nM, read-out: OX1 pKi (SPA binding) (converted)), 3.24 nM.

As for `Cc1nc(C(=O)N2C3CC(C3)[C@@H](C)C2COc2ccc(F)cc2)c(-c2cncc(Cl)c2)s1` (mixture of isomers) [Example 139, cis-2-[5-(5-chloropyridin-3-yl)-2-methyl-1,3-thiazole-4-carbonyl]-3-[(4-fluorophenoxy)methyl]-4-methyl-2-azabicyclo[3.1.1]heptane], in experiment [1] (Table 2, [3H]EMPA 2 nM), the “OX2 pKi (SPA binding)” value was 6.18. For the same compound, in experiment [2] (Table 2, [3H]SB-674042 2 nM), the “OX1 pKi (SPA binding)” value is reported as 7.85.

For the compound `Cc1ccc(-n2nccn2)c(C(=O)N2C3CC(C3)[C@@H](C)C2CNc2nc3ccc(F)cc3s2)n1` (single isomer, unassigned) [Example 154, 6-fluoro-N-{[(3R,4S) or (3S,4R)-4-methyl-2-[6-methyl-3-(2H-1,2,3-triazol-2-yl)pyridine-2-carbonyl]-2-azabicyclo[3.1.1]heptan-3-yl]methyl}-1,3-benzothiazol-2-amine], in experiment [1] (Table 2, [3H]EMPA 2 nM), the “OX2 pKi (SPA binding)” value was determined as 6.23. The “OX1 pKi (SPA binding)” value in experiment [2] (Table 2, [3H]SB-674042 2 nM) amounted to 9.06.

`Cc1ccc(-n2nccn2)c(C(=O)N2C3CC(C3)[C@@H](C)C2CNc2ccc3ccccc3n2)n1` (mixture of isomers) [Example 161, cis-N-({4-methyl-2-[6-methyl-3-(2H-1,2,3-triazol-2-yl)pyridine-2-carbonyl]-2-azabicyclo[3.1.1]heptan-3-yl}methyl)quinolin-2-amine]: in experiment [1] (Table 2, [3H]EMPA 2 nM), the “OX2 pKi (SPA binding)” value is listed as 5.2. Further, the “OX1 pKi (SPA binding)” value in experiment [2] (Table 2, [3H]SB-674042 2 nM) stood at 7.32.

As for `Cc1ccc(-n2nccn2)c(C(=O)N2C3CC(C3)[C@@H](C)C2CNc2cnc(C(F)(F)F)cn2)n1` (single isomer, unassigned) [Example 166, N-{[(3S,4R) or (3R,4S)-4-methyl-2-[6-methyl-3-(2H-1,2,3-triazol-2-yl)pyridine-2-carbonyl]-2-azabicyclo[3.1.1]heptan-3-yl]methyl}-5-(trifluoromethyl)pyrazin-2-amine], the “OX2 pKi (SPA binding)” value in experiment [1] (Table 2, [3H]EMPA 2 nM) is 4.29. The “OX1 pKi (SPA binding)” value in experiment [2] (Table 2, [3H]SB-674042 2 nM) was 6.99.

Turning to `O=C(c1nc(C2CC2)sc1-c1ccccc1)N1C(COc2ccc(F)cc2)CC2CC1C2` (stereo not shown) [Example 53], the “OX2 pKi (SPA binding)” value in experiment [1] (Table 1, [3H]EMPA 2 nM) was determined as 7.13. Also, in experiment [2] (Table 1, [3H]SB-674042 2 nM), the “OX1 pKi (SPA binding)” value was 7.58.

Consider `Cc1ccc(-c2nccs2)c(C(=O)N2C3CC(C3)[C@@H](C)C2COc2ccc(F)cc2)n1` (mixture of isomers) [Example 96, cis-3-[(4-fluorophenoxy)methyl]-4-methyl-2-[6-methyl-3-(1,3-thiazol-2-yl)pyridine-2-carbonyl]-2-azabicyclo[3.1.1]heptane], for which, in experiment [1] (Table 1, [3H]EMPA 2 nM), the “OX2 pKi (SPA binding)” value turned out to be 6.88. Also, in experiment [2] (Table 1, [3H]SB-674042 2 nM), the “OX1 pKi (SPA binding)” value is listed as 8.18.

`C[C@@H]1C2CC(C2)N(C(=O)c2cc(F)ccc2-n2nccn2)C1CNc1cnc2cc(F)ccc2n1` (stereo in doubt) [Example 224, cis-6-fluoro-N-({2-[5-fluoro-2-(2H-1,2,3-triazol-2-yl)benzoyl]-4-methyl-2-azabicyclo[3.1.1]heptan-3-yl}methyl)quinoxalin-2-amine]: the “OX2 pKi (SPA binding)” value in experiment [1] (Table 2, [3H]EMPA 2 nM) stood at 6.19. For the same compound, in experiment [2] (Table 2, [3H]SB-674042 2 nM), the “OX1 pKi (SPA binding)” value was 8.04.

Turning to `C[C@@H]1C2CC(C2)N(C(=O)c2nn(C)cc2-c2ccccc2)C1CNc1ccc(C(F)(F)F)cn1` (mixture of isomers) [Example 210, cis-N-{[4-methyl-2-(1-methyl-4-phenyl-1H-pyrazole-3-carbonyl)-2-azabicyclo[3.1.1]heptan-3-yl]methyl}-5-(trifluoromethyl)pyridin-2-amine], the “OX2 pKi (SPA binding)” value in experiment [1] (Table 2, [3H]EMPA 2 nM) is 5.84. Also, the “OX1 pKi (SPA binding)” value in experiment [2] (Table 2, [3H]SB-674042 2 nM) is 8.69.

For `Cc1ccc(-n2nccn2)c(C(=O)N2C3CC(C3)[C@@H](C)C2CNc2nc3ccccc3s2)n1` (single isomer, unassigned) [Example 180, N-{[(3R,4S) or (3S,4R)-4-methyl-2-[6-methyl-3-(2H-1,2,3-triazol-2-yl)pyridine-2-carbonyl]-2-azabicyclo[3.1.1]heptan-3-yl]methyl}-1,3-benzothiazol-2-amine], the “OX2 pKi (SPA binding)” value in experiment [1] (Table 2, [3H]EMPA 2 nM) came out at 5.58. For the same compound, the “OX1 pKi (SPA binding)” value in experiment [2] (Table 2, [3H]SB-674042 2 nM) is listed as 8.78.

Turning to `Cc1nc(C(=O)N2C3CC(C3)[C@H](C)C2COc2ccc(F)cc2)c(-c2ccccn2)s1` (single isomer, unassigned) [Example 124, (3S,4S) or (3R,4R)-3-[(4-fluorophenoxy)methyl]-4-methyl-2-[2-methyl-5-(pyridin-2-yl)-1,3-thiazole-4-carbonyl]-2-azabicyclo[3.1.1]heptane], the “OX2 pKi (SPA binding)” value in experiment [1] (Table 2, [3H]EMPA 2 nM) was found to be 6.3. Besides, the “OX1 pKi (SPA binding)” value in experiment [2] (Table 2, [3H]SB-674042 2 nM) is reported as 8.43.

As to `Cc1ccc(-n2nccn2)c(C(=O)N2C3CC(C3)[C@@H](C)C2CNc2cccc(C(F)(F)F)n2)n1` (mixture of isomers) [Example 197, cis-N-({4-methyl-2-[6-methyl-3-(2H-1,2,3-triazol-2-yl)pyridine-2-carbonyl]-2-azabicyclo[3.1.1]heptan-3-yl}methyl)-6-(trifluoromethyl)pyridin-2-amine], in experiment [1] (Table 2, [3H]EMPA 2 nM), the “OX2 pKi (SPA binding)” value was found to be 5.76. Moreover, the “OX1 pKi (SPA binding)” value in experiment [2] (Table 2, [3H]SB-674042 2 nM) is 6.99.
